Experimental findings from patent US6472408B1, “Dimeric compounds” (priority 2000, dated 2002) are described below.

Counter-ions that a name gives are not always drawn. Like-named read-outs stand apart in the source and are kept apart here.

One experiment addresses T1, AChE (Rattus norvegicus, UniProt P37136).
T1 construct: Frontal cortex (brain dissected on ice) was homogenized in sodium phosphate buffer; from tissue; host or cells: rat frontal cortex homogenate
T1 sequence (P37136 32-614): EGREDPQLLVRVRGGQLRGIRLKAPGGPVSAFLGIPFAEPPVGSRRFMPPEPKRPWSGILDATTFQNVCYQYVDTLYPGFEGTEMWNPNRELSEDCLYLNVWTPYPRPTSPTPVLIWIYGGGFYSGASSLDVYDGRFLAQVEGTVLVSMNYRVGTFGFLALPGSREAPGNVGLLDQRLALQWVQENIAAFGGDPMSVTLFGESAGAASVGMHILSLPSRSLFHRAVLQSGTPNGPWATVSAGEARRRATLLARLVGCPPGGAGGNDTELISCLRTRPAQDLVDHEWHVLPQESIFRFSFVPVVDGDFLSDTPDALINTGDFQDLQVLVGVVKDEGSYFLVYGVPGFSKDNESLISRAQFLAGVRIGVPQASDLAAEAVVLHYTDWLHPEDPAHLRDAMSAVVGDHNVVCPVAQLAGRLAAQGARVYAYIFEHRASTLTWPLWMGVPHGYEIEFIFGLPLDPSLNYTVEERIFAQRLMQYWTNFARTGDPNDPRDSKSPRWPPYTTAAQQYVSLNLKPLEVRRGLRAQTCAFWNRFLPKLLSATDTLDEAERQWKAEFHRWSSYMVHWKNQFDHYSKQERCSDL
As to the kind of experiment: biochemical. The conditions noted are these: for Selectivity for AChE: IC50(BChE)/IC50(AChE). On the procedure: (§1) Rat serum was obtained by centrifugation of blood (3500×g, 10 min.). The cholinesterase assays were performed using the cloroimetric method of Ellman, with minor modification. […] A mixture of 4 mL containing acetylthiocholine iodide (0.3 mM) or butrylthiocholine iodide (0.4 mM), I mL sodium phosphate buffer ([…], pH 7.4), a solution of the compound being tested (0.1 mL), and homogenate or serum (0.1 mL) was incubated at 37° C. for 8 minutes. The reaction was terminated by the addition of sodium dodecyl sulfate (3% w/v, 1 mL), after which the 5,5′-dithiobis-(2-nitrobenzoic acid) indicator (0.2% w/v, 1 mL) was added. Enzyme activity was determined by measuring the absorbance at 420 nm after 10 minutes, relative to the drug-free control.

The next experiment addresses T2, BChE (Rattus norvegicus, UniProt Q9JKC1).
T2 construct: Rat serum was obtained by centrifugation of blood; from tissue; host or cells: rat serum
Put plainly: biochemical. The settings on record: for IC50: rat serum. On the procedure:
as §1, with “AChE and BChE enzyme preparations were prepared from cortex and serum respectively of decapitated rats. Frontal cortex (brain dissected on ice) was homogenized in sodium phosphate buffer (39 vol. 75 mM, pH 7.4). Rat” for “Rat”

[1] abbreviates: Table II, rat cortex homogenate, in the presence of ethopropazine as a specific BChE inhibitor, drugs assayed as hydrochloride or fumaric acid salts, read-out: AchE IC50.
Setting [2] is: Table II, in the presence of BW284c51 as a specific AChE inhibitor, drugs assayed as salts.
Setting [3] is: Table III, in the presence of BW284c51, drugs 13 assayed as hydrochloride salts.
[4] abbreviates: at 0.5 mM, the highest drug concentration tested.
Where [5] appears, read: Table III, rat cornea homogenate, in the presence of ethopropazine, drugs 13 assayed as hydrochloride salts, read-out: AChE IC50.

T2 sequence (Q9JKC1 24-597): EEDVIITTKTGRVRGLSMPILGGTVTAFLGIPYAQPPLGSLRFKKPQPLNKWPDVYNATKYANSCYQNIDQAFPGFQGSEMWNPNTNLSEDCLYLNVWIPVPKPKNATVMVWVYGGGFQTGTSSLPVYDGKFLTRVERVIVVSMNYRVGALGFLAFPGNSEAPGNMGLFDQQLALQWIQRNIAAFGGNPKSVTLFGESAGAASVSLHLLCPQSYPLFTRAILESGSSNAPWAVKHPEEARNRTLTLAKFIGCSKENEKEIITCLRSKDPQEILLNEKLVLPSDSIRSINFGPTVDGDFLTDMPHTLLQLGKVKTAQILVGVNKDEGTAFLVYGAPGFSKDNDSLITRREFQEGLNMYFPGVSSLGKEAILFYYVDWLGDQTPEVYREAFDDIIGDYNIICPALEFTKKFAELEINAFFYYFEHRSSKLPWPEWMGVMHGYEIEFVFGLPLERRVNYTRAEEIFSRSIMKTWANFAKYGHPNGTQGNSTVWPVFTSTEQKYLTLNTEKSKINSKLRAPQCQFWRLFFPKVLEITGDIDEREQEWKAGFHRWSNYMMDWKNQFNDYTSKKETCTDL

As a reminder, the IC50 is the concentration needed to halve the response being measured. `CC1(C)Cc2[nH]c(=O)ccc2C(NCCCCCCCCCCNC2CC(C)(C)Cc3[nH]c(=O)ccc32)C1` (racemic) [rac-lmeso-14g]: on AChE (Table II), the “Selectivity for AChE” value is recorded as 17. Further, the IC50 at AChE (setting [1]) stood at 6.11 µM.

In the case of `O=c1ccc2c([nH]1)CCCC2NCCCCNC1CCCc2[nH]c(=O)ccc21` (racemic) [rac-lmeso-13a], the “Selectivity for AChE” value on AChE (Table II) came to 2.7. Also, the half-inhibitory concentration (IC50) on AChE (setting [1]) was 42.3 µM; at BChE (setting [2]), 115 µM.

`Cn1c2c(ccc1=O)C(NCCCCCCCCCCNC1CCCc3c1ccc(=O)n3C)CCC2` (racemic) [rac-lmeso-15g, rac/meso-N,N′-di-5′-(5′,6′,7′,8′-Tetrahydro-1′-methyl-quinolinolyl)-1,10-diaminodecane, bis-Fumaric Acid]: the “Selectivity for AChE” value at AChE (Table II) is listed as 180. Further, at AChE (setting [1]), the IC50 came to 0.438 ± 0.029 µM.

For `COc1ccc2c(n1)CCCC2NCCCCCCCCCCCCNC1CCCc2nc(OC)ccc21` (racemic) [rac-lmeso-17i], the “fold increase in AChE IC50 relative to rac-/meso-13i” value on AChE is given as 31 fold. The “Selectivity for AChE” value at AChE (Table II) is 15.8. For the same compound, the results for the IC50 on AChE (setting [1]) and on BChE (setting [2]) were 5 µM and 78.9 µM, respectively.

As for `O=c1ccc2c([nH]1)CCCC2NCCCCCCNC1CCCc2[nH]c(=O)ccc21` (racemic) [rac-lmeso-13c], on AChE (Table II), the “Selectivity for AChE” value is 26.3. In addition, the values for the IC50 on AChE (setting [1]) and at BChE (setting [2]) were 3.76 µM and 98.8 µM, respectively.

For the compound `CC1(C)Cc2[nH]c(=O)ccc2C(NCCCCCCCNC2CC(C)(C)Cc3[nH]c(=O)ccc32)C1` (racemic) [rac-lmeso-14d, rac-/meso-N,N′-Di-5′-(7′,7′-Dimethyl-5′,6′,7′,8′-tetrahydroquinolin-2-onyl)-1,7-diaminoheptane, bis-Fumaric Acid Salt], the “Selectivity for AChE” value on AChE (Table II) is listed as 10. Further, the IC50 on AChE (setting [1]) came to 18.3 µM; at BChE (setting [2]), 190 µM.

With `O=c1ccc2c([nH]1)CCCC2NCCCCCCCNC1CCCc2[nH]c(=O)ccc21` (racemic) [rac-lmeso-13d, rac-/meso-N′,N′-Di-5′-(5′,6′,7′,8′-Tetrahydroquinolin-2-onyl)-1,7-diaminoheptane, bis-Hydrochloride Salt], the “Selectivity for AChE” value on AChE (Table II) is 28.0. Moreover, the figures for the IC50 at AChE (setting [1]) and at BChE (setting [2]) were 1.24 µM and 34.6 µM, respectively.

Take `O=c1ccc2c([nH]1)CCCC2NCCCCCNC1CCCc2[nH]c(=O)ccc21` (racemic) [rac-lmeso-13b]: the “Selectivity for AChE” value on AChE (Table II) was determined as 9.1. Moreover, the IC50 on AChE (setting [1]) was determined as 10.5 µM.

For the compound `CC1(C)Cc2[nH]c(=O)ccc2C(NCCCCCCCCCCCCNC2CC(C)(C)Cc3[nH]c(=O)ccc32)C1` (racemic) [rac-lmeso-14i], the “Selectivity for AChE” value on AChE (Table II) came out at 17. Also, the IC50 on AChE (setting [1]) stood at 3.62 µM.

`O=c1ccc2c([nH]1)CCC[C@@H]2NCCCCCCCCCCCCN[C@H]1CCCc2[nH]c(=O)ccc21` [(S,S)-(−)-13i, (S,S)-(−)-N,N′-di-5′-(5′,6′,7′,8′-Tetrahydroquinolin-2-onyl)-1,12-diaminododecane, bis-Hydrochloride Salt]: the IC50 at BChE (setting [3]) was found to be 9.6 µM.

Consider `O=c1ccc2c([nH]1)CCC[C@H]2NCCCCCCCCCCCCN[C@@H]1CCCc2[nH]c(=O)ccc21` [(R,R)-(+)-13i], for which, at BChE (setting [3]), the IC50 came to 297 µM.

Usually inhibition stands for the drop in the measured response relative to a control, in per cent. As for `CCCCNC1CCCc2[nH]c(=O)ccc21` (racemic) [(±)-16, 5-n-Butylamino-5,6,7,8-tetrahydroquinolinone, bis-Hydrochloride, reference compound], the IC50 on AChE and at BChE (setting [2]) was about 500 µM each time. On AChE (Table II), the “Selectivity for AChE” value is “·1”. In addition, the inhibition at 500 µM against AChE (setting [4]) and against BChE (setting [4]) was about 50% throughout.

`O=c1ccc2c([nH]1)CCCC2NCCCCCCCCCCNC1CCCc2[nH]c(=O)ccc21` (racemic) [rac-lmeso-13g]: at BChE (setting [2]), the IC50 amounted to 5.45 µM.

For `O=c1ccc2c([nH]1)CCCC2NCCCCCCCCNC1CCCc2[nH]c(=O)ccc21` (racemic) [rac-lmeso-13e], the “Selectivity for AChE” value at AChE (Table II) worked out at 8.7. The results for the IC50 at AChE (setting [1]) and at BChE (setting [2]) were 1.17 µM and 10.2 µM, respectively.

For `O=c1ccc2c([nH]1)CCC[C@@H]2NCCCCCCCCCCCN[C@H]1CCCc2[nH]c(=O)ccc21` [(S,S)-(−)-13h], on AChE (Table III), the “Selectivity for AChE” value came to 13.8. In addition, the figures for the IC50 on AChE (setting [5]) and at BChE (setting [3]) were 0.084 ± 0.005 µM and 1.16 µM, respectively.

Turning to `O=c1ccc2c([nH]1)CCC[C@@H]2NCCCCCCCCCCCCCCN[C@H]1CCCc2[nH]c(=O)ccc21` [(S,S)-(−)-13k], at AChE (Table III), the “Selectivity for AChE” value is recorded as 248. In addition, the results for the IC50 at AChE (setting [5]) and on BChE (setting [3]) were 0.24 ± 0.05 µM and 59.5 µM, respectively.

For `CC1(NCCCCCCCCCCNC2(C)CCCc3[nH]c(=O)ccc32)CCCc2[nH]c(=O)ccc21` (racemic) [rac-lmeso-19g, rac-/meso-N,N′-di-5′-(5′,6′,7′,8′-Tetrahydro-5′-methylquinolinonyl)-1,10-diaminodecane, Fumaric Acid Salt], the “fold less potent than 13 g” value at AChE (AChE potency) is listed as 8 fold. Also, the “Selectivity for AChE” value at AChE (Table II) was 6.6. In addition, the IC50 at AChE (setting [1]) came out at 1.86 µM.

`O=c1ccc2c([nH]1)CCC[C@@H]2NCCCCCCCCCCN[C@H]1CCCc2[nH]c(=O)ccc21` [(S,S)-(−)-13g]: the IC50 on BChE (setting [3]) worked out at 1.82 µM.

Take `COc1ccc2c(n1)CCCC2NCCCCCCCCCCNC1CCCc2nc(OC)ccc21` (racemic) [rac-lmeso-17g, rac-/meso-N,N′-di-5′-(5′,6′,7′,8′-Tetrahydro-2′-methoxy-quinolinyl)-1,10-diaminodecane, bis-Fumaric Acid]: at AChE (Table II), the “Selectivity for AChE” value was found to be 7.6. Further, the IC50 amounted to 4.53 µM at AChE (setting [1]) and 34.6 µM at BChE (setting [2]).

`CC1(C)Cc2[nH]c(=O)ccc2C(NCCCCCCCCCNC2CC(C)(C)Cc3[nH]c(=O)ccc32)C1` (racemic) [rac-lmeso-14f]: the “Selectivity for AChE” value on AChE (Table II) was 8.8. The IC50 at AChE (setting [1]) turned out to be 11.8 µM; on BChE (setting [2]) it was 104 µM.

In the case of `O=c1ccc2c([nH]1)CCC[C@@H]2NCCCCCCCCCCCCCN[C@H]1CCCc2[nH]c(=O)ccc21` [(S,S)-(−)-13j], the “Selectivity for AChE” value on AChE (Table III) came to 321. Also, the results for the IC50 at AChE (setting [5]) and at BChE (setting [3]) were 0.052 ± 0.009 µM and 16.7 µM, respectively.

As for `O=c1ccc2c([nH]1)CCCC2NCCCCCCCCCNC1CCCc2[nH]c(=O)ccc21` (racemic) [rac-lmeso-13f], at AChE (Table II), the “Selectivity for AChE” value is recorded as 30.3. Also, the IC50 on AChE (setting [1]) worked out at 0.356 ± 0.007 µM.

Consider `O=c1ccc2c([nH]1)CCCC2NCCCCCCCCCCCCNC1CCCc2[nH]c(=O)ccc21` (racemic) [rac-lmeso-13i], for which the IC50 on BChE (setting [2]) amounted to 24.4 µM.
